Laboratory results taken from patent US9090668B2, “Process for synthesizing cyclic peptide compound” (THE UNIVERSITY OF TOKYO, priority 2007, dated 2015).
*1 amine or outer side, *2 acyl side, *3 side chain or, on linkers, in order; H or OH if unused. Where a SMILES comes first, the peptide text is derived from it. Bridges are numbered along the chain shown (N, C = ends). [ ]: non-standard residue; d: D form. The star is where a group is joined. hMet = CSCCC[C@H](N)C(=O)O; Orn = NCCC[C@H](N)C(=O)O; Dab = NCC[C@H](N)C(=O)O; X1 = O=C(C[*:2])[*:1]; For = O=C*

What was measured:
[1] = biological target: proteinase K (Parengyodontium album, UniProt P06873); experiment: Protease resistance of peptides against proteinase K, analysed by MALDI-MS; assay type: in vitro ADME; details: 5 μg/ml proteinase K, 37° C., 1 hour
proteinase K, sequence (P06873 106-384, species assumed): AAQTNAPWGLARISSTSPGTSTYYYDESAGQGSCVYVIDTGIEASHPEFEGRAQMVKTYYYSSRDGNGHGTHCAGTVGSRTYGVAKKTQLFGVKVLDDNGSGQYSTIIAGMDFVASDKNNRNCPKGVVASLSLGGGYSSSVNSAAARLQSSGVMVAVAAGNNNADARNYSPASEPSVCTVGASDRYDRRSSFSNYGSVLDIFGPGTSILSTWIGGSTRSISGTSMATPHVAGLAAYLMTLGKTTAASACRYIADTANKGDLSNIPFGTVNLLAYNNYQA
Method: Translationally synthesized peptides and purchased Urotensin II peptides were reacted in 5 μg/ml of a proteinase K solution at 37° C. for 1 hour in the presence of, or in the absence of, 1 mM DTT.

[2] = biological target: T1, Urotensin II receptor (Homo sapiens, UniProt Q9UKP6); experiment: Calcium mobilization measurement in HEK-UTR cells (Fluo-4-AM fluorescence); assay type: cell-based; details: HEK-UTR cells (HEK cells expressing an Urotensin II receptor)
T1 construct: expressed in transfected cells; host or cells: HEK cells (HEK-UTR)
T1 sequence (Q9UKP6 1-389): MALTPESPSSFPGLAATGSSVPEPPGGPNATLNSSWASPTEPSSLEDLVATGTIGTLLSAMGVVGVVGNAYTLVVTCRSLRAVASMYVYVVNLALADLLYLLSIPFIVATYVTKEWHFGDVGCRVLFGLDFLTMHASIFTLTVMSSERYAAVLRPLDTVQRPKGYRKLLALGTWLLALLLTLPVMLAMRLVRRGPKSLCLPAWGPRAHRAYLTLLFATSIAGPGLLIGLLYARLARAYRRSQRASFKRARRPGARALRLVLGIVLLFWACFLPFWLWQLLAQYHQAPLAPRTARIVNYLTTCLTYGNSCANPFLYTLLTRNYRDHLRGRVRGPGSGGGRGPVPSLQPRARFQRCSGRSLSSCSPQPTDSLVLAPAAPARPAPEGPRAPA
Method: FIG. 10 illustrates calcium mobilization in cells by addition of peptides using a fluorescent reagent. 2×10^5 HEK-UTR cells (HEK cells expressing an Urotensin II receptor) were seeded into a 96 well plate. After 12-16 hours, the cells were incubated in 1 μM Fluo-4-AM (Dojindo Laboratories) for 1 hour. After the incubation was completed, the fluorescent reagent was removed, and 90 μL of an assay buffer (Hanks Balanced Salts Solution (HBSS), 10 mM HEPES, 200 μM of CaCl2, 0.1% BSA, and 2.5 mM probenecid) was added. Then, 10 μL of peptides dissolved in an assay buffer was added, and changes in an intensity of fluorescent light were measured by a microplate reader. The peptides were prepared by purifying the translation product by Zip-tip (Millipore) and distilling off the elute under reduced pressure.

Structure (SMILES) | degradation by proteinase K [1] | degradation by proteinase K after change into linear form by DTT ([1]; in the presence of 1 mM DTT) | calcium mobilization in cells (change in fluorescence intensity) [2]
CC(C)[C@H](NC(=O)[C@@H]1CSSC[C@H](NC(=O)[C@H](CC(=O)O)NC(=O)[C@@H]2CCCN2C(=O)[C@@H](NC(=O)[C@@H](N)CCC(=O)O)[C@@H](C)O)C(=O)N[C@@H](Cc2ccccc2)C(=O)N[C@@H](Cc2c[nH]c3ccccc23)C(=O)N[C@@H](CCCCN)C(=O)N[C@@H](Cc2ccc(O)cc2)C(=O)N1)C(=O)O [Urotensin II] | not degraded | decomposed | 
CSCCC[C@H](NC=O)C(=O)N1CCC[C@H]1C(=O)N[C@@H](CC(=O)O)C(=O)N[C@H]1CCNC(=O)CSC[C@@H](C(=O)N[C@H](C(=O)O)C(C)C)NC(=O)[C@H](Cc2ccc(O)cc2)NC(=O)[C@H](CCCN)NC(=O)[C@H](Cc2c[nH]c3ccccc23)NC(=O)[C@H](Cc2ccccc2)NC1=O [YS9] (For-[hMet]PD[Dab]FW[Orn]YCV-OH; linker 4-9 via X1) | not degraded |  | calcium mobilization in the cells was observed
CSCC[C@H](NC=O)C(=O)N1CCC[C@H]1C(=O)N[C@@H](CC(=O)O)C(=O)N[C@@H](CC(C)C)C(=O)N[C@@H](Cc1ccccc1)C(=O)N[C@@H](Cc1c[nH]c2ccccc12)C(=O)N[C@@H](CCCCN)C(=O)N[C@@H](Cc1ccc(O)cc1)C(=O)N[C@@H](CS)C(=O)N[C@H](C(=O)O)C(C)C [YS10] (For-MPDLFWKYCV-OH; N-terminus and C-terminus assumed) | degraded |  | 
